As a reminder, the EC50 is the concentration needed to bring the measured effect to its halfway point.

In assay [1] the target is T1, KCa3.1 channels in 3T3 fibroblasts (Mus musculus, UniProt O89109).
T1 construct: KCa3.1 channels in 3T3 fibroblasts; endogenous in cells; host or cells: 3T3-L1 mouse embryonic fibroblasts
Briefly: Whole-cell patch-clamp of KCa3.1 currents in 3T3 fibroblasts. Format: cell-based. The following applies: for remaining activity at 10 µM: read-out: % of control at 10 µM; for KCa3.1 blocking effect (in words) / EC50: whole-cell; for KCa3.1 blocking effect (in words): concentrations up to 50 µM as in Table 1; for remaining activity at 50 µM: compound 50 µM, read-out: % of control at 50 µM; for remaining activity at 1 µM: read-out: % of control at 1 µM.

The target in the next assay is T2, hKCa2.3 (Homo sapiens, UniProt Q9UGI6).
T2 construct: expressed in transfected cells; host or cells: COS7
T2 sequence (Q9UGI6 whole entry): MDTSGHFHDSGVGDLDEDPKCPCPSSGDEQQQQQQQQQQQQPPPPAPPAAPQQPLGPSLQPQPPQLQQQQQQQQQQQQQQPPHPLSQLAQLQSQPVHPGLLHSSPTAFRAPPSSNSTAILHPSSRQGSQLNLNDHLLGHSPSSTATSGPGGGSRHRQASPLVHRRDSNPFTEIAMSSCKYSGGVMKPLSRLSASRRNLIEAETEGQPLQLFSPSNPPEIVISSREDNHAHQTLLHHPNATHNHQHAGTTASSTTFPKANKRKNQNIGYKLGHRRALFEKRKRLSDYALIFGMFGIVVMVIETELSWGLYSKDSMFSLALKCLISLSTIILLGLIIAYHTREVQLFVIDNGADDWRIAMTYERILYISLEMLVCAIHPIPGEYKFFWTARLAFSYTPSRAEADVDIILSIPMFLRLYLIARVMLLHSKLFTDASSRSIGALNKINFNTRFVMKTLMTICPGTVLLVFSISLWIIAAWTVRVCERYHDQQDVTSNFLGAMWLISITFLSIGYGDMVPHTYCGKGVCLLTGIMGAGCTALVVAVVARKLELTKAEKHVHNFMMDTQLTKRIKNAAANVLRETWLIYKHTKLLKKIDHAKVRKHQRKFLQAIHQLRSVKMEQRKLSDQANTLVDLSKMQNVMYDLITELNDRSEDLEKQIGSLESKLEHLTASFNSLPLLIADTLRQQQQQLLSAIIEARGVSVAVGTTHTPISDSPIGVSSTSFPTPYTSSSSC
The assay is described as follows: Whole-cell patch-clamp of hKCa2.3 in COS7 cells. The following applies: for remaining activity at 1 µM: COS-7, hKCa2.3, compound 1 µM, mean ± SEM, n ≥ 3, read-out: % of control at 1 µM; for KCa2.3 blocking effect (in words): micromolar concentrations. Format: cell-based. Background: In patch-clamp work, channel activity is measured electrically.

Another assay deals with T3, hKv1.2 (Homo sapiens, UniProt P16389).
T3 construct: expressed in transfected cells; host or cells: B82 murine fibroblasts (Methods)
T3 sequence (P16389 whole entry): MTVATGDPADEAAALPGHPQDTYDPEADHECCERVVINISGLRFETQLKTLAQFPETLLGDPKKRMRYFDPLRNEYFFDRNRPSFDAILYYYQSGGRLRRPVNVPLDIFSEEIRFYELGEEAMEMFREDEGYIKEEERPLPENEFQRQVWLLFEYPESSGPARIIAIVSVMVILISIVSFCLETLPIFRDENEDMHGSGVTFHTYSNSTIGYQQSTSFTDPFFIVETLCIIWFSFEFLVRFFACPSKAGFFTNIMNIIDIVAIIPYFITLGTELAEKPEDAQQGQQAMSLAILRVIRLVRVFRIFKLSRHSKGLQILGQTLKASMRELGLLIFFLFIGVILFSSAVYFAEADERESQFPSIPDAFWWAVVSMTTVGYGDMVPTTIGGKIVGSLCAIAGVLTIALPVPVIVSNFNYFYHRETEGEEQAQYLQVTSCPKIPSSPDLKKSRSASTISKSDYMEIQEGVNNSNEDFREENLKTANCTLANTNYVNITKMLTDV
Briefly: Whole-cell patch-clamp of cloned hKv1.2. Format: cell-based. The following applies: for remaining activity at 1 µM: hKv1.2, compound 1 µM, read-out: % of control at 1 µM.

Assay [2] concerns the target T4, cloned human KCa3.1 channel (Homo sapiens, UniProt O15554).
T4 construct: expressed in transfected cells; gift of Khaled Houamed, University of Chicago
Briefly: Inside-out patch recordings from hKCa3.1-overexpressing HEK293 cells. Format: biochemical. The following applies: inside-out patches; compound 1 µM.

Assay [3] deals with mixed KCa3.1 and KCa2.3 currents in PCAEC. The assay is described as follows: Whole-cell patch-clamp of KCa currents in porcine coronary artery endothelial cells. Format: cell-based. The following applies: whole-cell, compound 1 µM.
Where [4] appears, read: KCa3.1 whole-cell current, 3T3 fibroblasts, 1 µM free Ca2+ in pipette, compound 10 µM, mean ± SEM, n ≥3.
Setting [5] is: EC50 of KCa3.1 inhibition, 3T3 fibroblasts.
[6] abbreviates: KCa3.1 whole-cell current, 3T3 fibroblasts, 1 µM free Ca2+ in pipette, mean ± SEM, n ≥3.
The mark [7] stands for this setting: KCa3.1 whole-cell current, 3T3 fibroblasts, 1 µM free Ca2+ in pipette, compound 1 µM, mean ± SEM, n ≥3.
Where [8] appears, read: 3T3 fibroblasts, read-out: EC50 of KCa3.1 inhibition.

SMILES strings stand for the structures. Where “and” joins values, the source holds several entries; their conditions need not be identical. Equal entries are not always repeated. Entries after “also recorded” stand apart in the source; their conditions may differ. Where two headings read alike, the source gives them in different places.

Turning to `O=C(O)c1cc(O)c(O)c(O)c1` [Gallic acid, 3,4,5-trihydroxybenzoic acid], the remaining activity at 10 µM in assay [1] (setting [4]) stood at 101 ± 6%. Further, in assay [1] (3T3 fibroblasts), the “KCa3.1 blocking effect (in words)” value was “weak or no blocking effects and no”.

In assay [1] (setting [5]), `COc1cc(C(=O)O)ccc1O` [Vanillic Acid, 4-hydroxy-3-methoxybenzoic acid] showed an EC50 of more than 10 µM. The remaining activity at 10 µM in assay [1] (setting [4]) is 78 ± 11%. The remaining activity at 50 µM in assay [1] (setting [6]) was found to be 46 ± 12%. For the same molecule, the “KCa3.1 blocking effect (in words)” value in assay [1] (3T3 fibroblasts) is listed as “weak or no blocking effects; also recorded: Weak inhibition”.

Regarding `O=C(O)c1cccnc1Nc1cccc(C(F)(F)F)c1` [Niflumic Acid, reference compound], the remaining activity at 10 µM in assay [1] (setting [4]) was determined as 106 ± 7%. In assay [1] (setting [6]), the remaining activity at 50 µM was found to be 81 ± 4%. Also, the “KCa3.1 blocking effect (in words)” value in assay [1] (3T3 fibroblasts) was “no blocking activity; also recorded: no blocking effects”.

On to `c1cc2cc(c1)C[n+]1ccc(c3ccccc31)NCc1ccc(cc1)CNc1cc[n+](c3ccccc13)C2` [UCL1684, 6,10-diaza-3(1,3),8(1,4)-dibenzena-1,5(1,4)-diquinolinacyclodecaphane, reference compound], for which, on hKCa2.3 (hKCa2.3 current pre-activated by 1 µM SKA-31, n = 4), the “% of control at 100 nM” value was 2±1%.

With `OCCc1ccc(O)c(O)c1` [Hydroxytyrosol], in assay [1] (setting [7]), the remaining activity at 1 µM turned out to be 117 ± 9%. The remaining activity at 10 µM in assay [1] (setting [4]) amounted to 108 ± 15%. For the same molecule, the “KCa3.1 blocking effect (in words)” value in assay [1] (3T3 fibroblasts) is “weak or no blocking effects and no”.

As for `O=C(OC[C@H]1O[C@@H](OC(=O)c2cc(O)c(O)c(O)c2)[C@H](OC(=O)c2cc(O)c(O)c(O)c2)[C@@H](OC(=O)c2cc(O)c(O)c(O)c2)[C@@H]1OC(=O)c1cc(O)c(O)c(O)c1)c1cc(O)c(O)c(O)c1` [1,2,3,4,6-pentagalloyl glucose, [(2S,3R,4S,5R,6R)-2,3,5-tris[(3,4,5-trihydroxybenzoyl)oxy]-6-[(3,4,5-trihydroxybenzoyl)oxymethyl]oxan-4-yl] 3,4,5-trihydroxybenzoate], in assay [1] (setting [4]), the remaining activity at 10 µM was 102 ± 6%. In assay [1] (3T3 fibroblasts), the “KCa3.1 blocking effect (in words)” value was “no”.

As for `Cc1ccc(=O)n(-c2ccccc2)c1` [Pirfenidone, methyl-1-phenylpyridin-2(1H)-one, reference compound], in assay [1] (setting [4]), the remaining activity at 10 µM is 98 ± 5%. In addition, in assay [1] (setting [6]), the remaining activity at 50 µM is 99 ± 14%. The “KCa3.1 blocking effect (in words)” value in assay [1] (3T3 fibroblasts) is recorded as “no effects”.

Take `O=C(OCc1cc(COC(=O)c2ccc(O)c(Cl)c2)cc(COC(=O)c2ccc(O)c(Cl)c2)c1)c1ccc(O)c(Cl)c1` [Compound 13c, [3,5-bis[(3-chloro-4-hydroxy-benzoyl)oxymethyl]phenyl]methyl3-chloro-4-hydroxy-benzoate]: the “hKv1.2 blocking effect (in words)” value at hKv1.2 (flufenamic acid and caffeic acid 10 and 50 µM, 13c 1 µM) is “no effect”. The remaining activity at 1 µM on hKv1.2 is 104 ± 3%; in assay [1] (setting [7]), 61 ± 17%; on hKCa2.3, 92 ± 4%. Moreover, the “KCa3.1 blocking effect (in words)” value in assay [1] (3T3 fibroblasts) is reported as “weak to moderate blocking efficiency”. The “KCa2.3 blocking effect (in words)” value at hKCa2.3 was “no blocking effects”. In addition, the “hKCa3.1 blocking effect (in words)” value in assay [2] was “no or minor blocking effects; also recorded: did not block”.

Turning to `Cc1cccc(Nc2ccccc2C(=O)O)c1C` [Mefenamic Acid, 2-((2,3-dimethylphenyl)amino)benzoic acid, reference compound], the remaining activity at 1 µM in assay [1] (setting [7]) turned out to be 117 ± 4%. Further, in assay [1] (setting [4]), the remaining activity at 10 µM was determined as 136 ± 28%. The “KCa3.1 blocking effect (in words)” value in assay [1] (3T3 fibroblasts) is recorded as “no blocking effects”.

For the molecule `Oc1ccc(/C=C/c2cc(O)cc(O)c2)cc1` [Resveratrol, 5-[(E)-2-(4-Hydroxyphenyl)vinyl]benzene-1,3-diol], the concentration for a half-maximal effect (EC50) in assay [1] (setting [8]) is 10 µM and ~10 µM and 1 to 10 µM.

As to `COc1cc(C(=O)OCc2cc(COC(=O)c3ccc(O)c(OC)c3)cc(COC(=O)c3ccc(O)c(OC)c3)c2)ccc1O` [Compound 13a, [3,5-bis[(4-hydroxy-3-methoxy-benzoyl)oxymethyl]phenyl]methyl4-hydroxy-3-methoxy-benzoate], the “block of hKv1.2 currents” value on hKv1.2 (1 µM) is 50%. The remaining activity at 1 µM at hKv1.2 was 46 ± 3%; in assay [1] (setting [7]) it was 78 ± 6%; on hKCa2.3, 98 ± 1%. In addition, at hKCa2.3, the “KCa2.3 blocking effect (in words)” value is reported as “no blocking effects”. For the same molecule, the “hKCa3.1 blocking effect (in words)” value in assay [2] is recorded as “no or minor blocking effects; also recorded: did not block”.

As to `Clc1ccccc1C(c1ccccc1)(c1ccccc1)n1cccn1` [TRAM-34, 1-[(2-chlorophenyl) (diphenyl)methyl]-1H-pyrazole, reference compound], in assay [1], the remaining activity at 1 µM was 1 ± 1%. Also, in assay [1] (3T3 fibroblasts), the “KCa3.1 blocking effect (in words)” value is given as “completely inhibited”. In assay [3], the “KCa current, % of control” value is on record as 58±4%.

In turn, `COc1cc(/C=C/C(=O)O)ccc1O` [Ferulic Acid, (E)-3-(4-hydroxy-3-methoxyphenyl)propenoic acid] came in with an EC50 in assay [1] (setting [5]) of more than 10 µM. For the same molecule, the remaining activity at 10 µM in assay [1] (setting [4]) was 87 ± 8%. Moreover, the remaining activity at 50 µM in assay [1] (setting [6]) is 32 ± 4%.

As to `Nc1ccc(O)c(C(=O)O)c1` [Mesalamine, 5-amino-2-hydroxybenzoic acid, reference compound], the remaining activity at 1 µM in assay [1] (setting [7]) was 72 ± 6%. In assay [1] (setting [4]), the remaining activity at 10 µM was determined as 53 ± 7%. Besides, in assay [1] (setting [6]), the remaining activity at 50 µM turned out to be 46 ± 3%. In addition, the EC50 in assay [1] (setting [8]) is ≥ 10 µM and 26 µM.

As for `CC(=O)Oc1ccccc1C(=O)O` [2-acetyloxybenzoic acid, reference compound], the remaining activity at 10 µM in assay [1] (setting [4]) is 108 ± 5%. Further, the remaining activity at 50 µM in assay [1] (setting [6]) stood at 104 ± 7%. Also, the “KCa3.1 blocking effect (in words)” value in assay [1] (3T3 fibroblasts) is given as “no effect”.

For `O=C(/C=C/c1ccc(O)c(O)c1)OCCc1ccccc1` [Caffeic acid phenethyl ester, 2-phenylethyl (E)-3-(3,4-dihydroxyphenyl)propenoate], in assay [1] (setting [4]), the remaining activity at 10 µM was 94 ± 6%. In addition, in assay [1] (3T3 fibroblasts), the “KCa3.1 blocking effect (in words)” value is recorded as “no”.

Consider `NC(=O)C[S+]([O-])C(c1ccccc1)c1ccccc1` (stereo not shown) [Modafinil, 2-benzhydrylsulfinylacetamide, reference compound], for which the EC50 in assay [1] (setting [5]) was more than 1 µM. For the same molecule, the remaining activity at 10 µM in assay [1] was found to be 33 ± 6%.

Source of the values: PMC3597730, “Novel Phenolic Inhibitors of Small/Intermediate-Conductance Ca^2+-Activated K^+ Channels, KCa3.1 and KCa2.3” (PLoS ONE, 2013).
